Like-named read-outs stand apart in the source and are kept apart here.
Key:
[1] = test system: Key Broadleaf Weed and Crop Species; experiment: Post-emergent Test II herbicidal activity (Table 15); assay type: in vivo; conditions: post-emergence, 336 h, 14 d; for pest or weed control at 35 g/ha: 35 g ai/ha; for pest or weed control at 70 g/ha: 70 g ai/ha; for pest or weed control at 140 g/ha: 140 g ai/ha
Summary of the method: (§1)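 Herbicidal effect scored as percent visual injury, 14 d after post-emergent application. Spray solutions contained acetone, DMSO, isopropyl alcohol, crop oil concentrate and surfactant, applied at 187 L/ha to young plants (1-2 true leaves).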

[2] = test system: Key Grass and Sedge Weeds as well as Grass Crops; experiment: Post-emergent Test II herbicidal activity (Table 16); assay type: in vivo; conditions: post-emergence, 336 h, 14 d; for pest or weed control at 35 g/ha: 35 g ai/ha; for pest or weed control at 70 g/ha: 70 g ai/ha; for pest or weed control at 140 g/ha: 140 g ai/ha
Summary of the method: as §1

[3] = Abutilon theophrasti, velvetleaf (Abutilon theophrasti), read-out: Visual Growth Reduction (%) 14 Days After Application, ABUTH
[4] = Amaranthus retroflexus, redroot pigweed (Amaranthus retroflexus), read-out: Visual Growth Reduction (%) 14 Days After Application, AMARE
[5] = Brassica napus, oilseed rape, canola (Brassica napus), read-out: Visual Growth Reduction (%) 14 Days After Application, BRSNN
[6] = Chenopodium album, lambsquarters (Chenopodium album), read-out: Visual Growth Reduction (%) 14 Days After Application, CHEAL
[7] = Euphorbia heterophylla, wild poinsettia (Euphorbia heterophylla), read-out: Visual Growth Reduction (%) 14 Days After Application, EPHHL
[8] = Helianthus annuus, sunflower (Helianthus annuus), read-out: Visual Growth Reduction (%) 14 Days After Application, HELAN
[9] = Cyperus esculentus, yellow nutsedge (Cyperus esculentus), read-out: Visual Growth Reduction (%) 14 Days After Application, CYPES
[10] = Echinochloa crus-galli, barnyardgrass (Echinochloa crus-galli), read-out: Visual Growth Reduction (%) 14 Days After Application, ECHCG
[11] = Oryza sativa, rice (Oryza sativa), read-out: Visual Growth Reduction (%) 14 Days After Application, ORYSA
[12] = Setaria faberi, giant foxtail (Setaria faberi), read-out: Visual Growth Reduction (%) 14 Days After Application, SETFA
[13] = Triticum aestivum, wheat, spring (Triticum aestivum), read-out: Visual Growth Reduction (%) 14 Days After Application, TRZAS
[14] = Zea mays, maize, corn (Zea mays), read-out: Visual Growth Reduction (%) 14 Days After Application, ZEAMX

## COc1c(C(=O)O)nc(-c2ccc3cc[nH]c3c2F)c(F)c1N [Compound 1.17]
[1]; [3]
  pest or weed control at 35 g/ha: 45 to 59%
  pest or weed control at 70 g/ha: 45 to 59%
  pest or weed control at 140 g/ha: 60 to 74%
[1]; [4]
  pest or weed control at 35 g/ha: 95 to 100%
  pest or weed control at 70 g/ha: 95 to 100%
  pest or weed control at 140 g/ha: 95 to 100%
[1]; [5]
  pest or weed control at 35 g/ha: 95 to 100%
  pest or weed control at 70 g/ha: 95 to 100%
  pest or weed control at 140 g/ha: 95 to 100%
[1]; [6]
  pest or weed control at 35 g/ha: 95 to 100%
  pest or weed control at 70 g/ha: 95 to 100%
  pest or weed control at 140 g/ha: 95 to 100%
[1]; [7]
  pest or weed control at 35 g/ha: 95 to 100%
  pest or weed control at 70 g/ha: 95 to 100%
  pest or weed control at 140 g/ha: 95 to 100%
[1]; [8]
  pest or weed control at 35 g/ha: 95 to 100%
  pest or weed control at 70 g/ha: 95 to 100%
  pest or weed control at 140 g/ha: 95 to 100%
[2]; [9]
  pest or weed control at 35 g/ha: 45 to 59%
  pest or weed control at 70 g/ha: 45 to 59%
  pest or weed control at 140 g/ha: 45 to 59%
[2]; [10]
  pest or weed control at 35 g/ha: 85 to 94%
  pest or weed control at 70 g/ha: 85 to 94%
  pest or weed control at 140 g/ha: 85 to 94%
[2]; [11]
  pest or weed control at 35 g/ha: 0 to 29%
  pest or weed control at 70 g/ha: 0 to 29%
  pest or weed control at 140 g/ha: 0 to 29%
[2]; [12]
  pest or weed control at 35 g/ha: 75 to 84%
  pest or weed control at 70 g/ha: 85 to 94%
  pest or weed control at 140 g/ha: 85 to 94%
[2]; [13]
  pest or weed control at 35 g/ha: 60 to 74%
  pest or weed control at 70 g/ha: 60 to 74%
  pest or weed control at 140 g/ha: 60 to 74%
[2]; [14]
  pest or weed control at 35 g/ha: 60 to 74%
  pest or weed control at 70 g/ha: 75 to 84%
  pest or weed control at 140 g/ha: 75 to 84%
other
  melting point: 133 to 140 °C
